Laboratory results from US9605026B2, “Hydrogen-bond surrogate peptides and peptidomimetics for p53 reactivation” (New York University, priority 2013, dated 2017).

Tested on: p53-regulated genes (p21, miR-34a, miR-200c)
Test: qPCR expression of p300, p53, p21, miR-34a, miR-200c in UMSCC47 cells
Assay type: cell-based, human
Conditions: UMSCC47, 10 μM, 24 hours, vs control
Text: FIG. 5A is an schematic illustration showing that CH1 has two distinct target sites. HIF1-α/p300 structures were used as guides to design helix mimetics that target site A and site B on the CH1 domain of p300. […] CH1iA (SEQ ID NO: 7) and CH1iB (SEQ ID NO: 8) were designed to mimic two helices from the C-terminal domain of HIF-1α. The peptides were locked into the helical conformation by the hydrogen bond surrogate method. FIG. 5C is a graph of p53 activity. UMSCC47 (left) and UMSCC74A (right) cells were co-transfected with a p53 Firefly luciferase reporter plasmid and a control Renilla luciferase plasmid. After 24 hours, cells were treated with control (vehicle), CH1iA (10 μM), or CH1iB (10 μM) for 24 hours. Firefly luciferase activity was normalized to Renilla luciferase activity to control for transfection efficiency. Data is normalized to control and presented as mean±SEM. *P<0.05, n=3. […] UMSCC47 (top panel) and UMSCC74A (bottom panel) cells were treated with control (vehicle), CH1iA (10 μM), or CH1iB (10 μM) for 24 hours. mRNA expression was determined using qPCR with validated TaqMan assays. […]
FIG. 6A is a western blot showing total and acetylated p53 levels. […] UMSCC47 cells were treated with control (vehicle), CH1iB (10 μM), cis-platinum (10 μM), or CH1iB (10 μM) and cis-platinum (10 μM) for 24 hours. mRNA expression was determined using qPCR with validated TaqMan assays. […]

Which “p21, miR-34a, and miR-200c expression” value does the source give for “XELA*RALDQ-NH2 (ELXRALDQ; HBS: 4-pentenoic acid, N-allylalanine; C-terminal amide; CH1iB) [X 4-pentenoic acid, A* N-allylalanine]” here?
The value was “modest but significant increase”.
